In patent publication EP4470536A1, “COMPOUND FOR USE IN TREATING FIBRODYSPLASIA OSSIFICANS PROGRESSIVA (FOP)” (Queen's University At Kingston, priority 2023, dated 2024):

Columns and labels:
[1] = target: T1, CYP26B1 (Homo sapiens, UniProt Q9NR63); assay: HeLa cell-based inhibitor assay (HeLa-CYP26B1), inhibition of all trans-RA metabolism; details: CYP26B1 cells; [3H]-RA, 3 hours at 37 °C; Figure 1
T1 sequence (Q9NR63 1-512): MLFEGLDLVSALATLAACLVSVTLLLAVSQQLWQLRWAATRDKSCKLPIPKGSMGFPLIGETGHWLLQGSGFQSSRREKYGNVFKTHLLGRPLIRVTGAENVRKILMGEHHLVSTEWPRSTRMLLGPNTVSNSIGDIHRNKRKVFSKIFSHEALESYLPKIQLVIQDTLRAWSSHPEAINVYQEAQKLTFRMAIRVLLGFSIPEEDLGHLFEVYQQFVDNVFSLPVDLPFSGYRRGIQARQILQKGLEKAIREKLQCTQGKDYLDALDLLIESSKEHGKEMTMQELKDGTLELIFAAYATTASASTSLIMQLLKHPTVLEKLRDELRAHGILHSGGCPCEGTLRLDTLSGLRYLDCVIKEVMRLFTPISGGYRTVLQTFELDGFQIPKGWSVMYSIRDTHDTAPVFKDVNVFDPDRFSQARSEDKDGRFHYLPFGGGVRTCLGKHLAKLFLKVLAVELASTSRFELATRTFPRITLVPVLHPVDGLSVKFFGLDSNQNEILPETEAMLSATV
Procedure: CYP26A1 or CYP26B1 cDNA stably transfected HeLa cells were maintained in Minimum Essential Medium (MEM) containing 10% fetal bovine serum (FBS), 1X antibiotic/antimycotic cocktail, and […] hygromycin. Exponentially growing cells were harvested by incubation in trypsin. Cells were then collected and re-plated in 48-well culture plates at 1.5×10^5 (CYP26A1) or 1.5×10^4 (CYP26B1) cells in 0.2 mL of culture medium containing 0.04µCi [^3H]-RA (retinoic acid) in the presence or absence of increasing concentrations of a test compound. The test compound was diluted in dimethyl sulfoxide (DMSO) and then added in duplicate to wells to 0.01 nM, 0.1 nM, 1 nM, 10 nM, 100 nM, 1 µM, and 10 µM final concentrations. Cells were incubated for 3 hours at 37 °C. Retinoids were then extracted using the procedure of Bligh, et al., (1959), Canadian Journal of Biochemistry 37, 911-917, which was modified by using dichloromethane instead of chloroform. Each sample's water-soluble radioactivity level was quantified using a β-scintillation counter (using Ecolume scintillation fluid, available from MP Biomedicals of Solon, OH, USA). IC50 values represented the concentration of inhibitor required to inhibit all trans-RA metabolism by 50%, and were derived from log transformed data.

[2] = target: T1, CYP26B1; assay: Microsome-based inhibitor assay (microsomes from CYP26B1-transfected HeLa cells); format: biochemical; details: 5µg microsomal fraction, 1mM NADPH, 1 hour at 37°C; Figure 3
Procedure: This assay used cell-free microsomes to measure the ability of a test compound to inhibit the metabolism of RA. Microsomal fractions were obtained from CYP26B1 cDNA stably transfected HeLa cells by differential centrifugation of cell lysates. Assays were carried out in 48-well plates containing 5µg of microsomal fraction in Microsome Assay Buffer, containing 0.04µCi [^3H]-RA in the presence of increasing concentrations of a test compound, as described above for the HeLa cell-based assay. Reactions were initiated by addition of 1mM NADPH, and carried out for 1 hour at 37°C. Reactions were stopped, retinoids extracted, and data were collected and analyzed as described above for the HeLa cell-based assay.

[3] = Mapping a therapeutic window (ED50 versus MTD); format: in vivo
Excerpt: For both palovarotene and compound 1 efficacy and toxicity were correlated to the pharmacokinetic parameters AUC (area under the curve), Cmax (maximum concentration detected following compound administration), and duration above EC50/IC50.This illustrated that efficacy was best predicted by duration above the EC50/IC50 (effective concentration for 50% response (in the case of palovarotene), or for 50% inhibition (in the case of compound 1)), whereas toxicity was best predicted by Cmax. […] For palovarotene, efficacy data from Example 7 and toxicity data from Example 8 above were compiled with mined data from the following publications: • Lindborg et al (2018). "Cartilage-derived retinoic acid-sensitive protein (CD-RAP): A stage-specific biomarker of heterotopic endochondral ossification (HEO) in fibrodysplasia ossificans progressiva (FOP)." Bone 109: 153-157. • Chakkalakal, S. A., et al. (2016). "Palovarotene Inhibits Heterotopic Ossification and Maintains Limb Mobility and Growth in Mice With the Human ACVR1(R206H) Fibrodysplasia Ossificans Progressiva (FOP) Mutation." J Bone Miner Res 31(9): 1666-1675. • Inubushi, T., et al. (2018). "Palovarotene Inhibits Osteochondroma Formation in a Mouse Model of Multiple Hereditary Exostoses." J Bone Miner Res 33(4): 658-666. • Lees-Shepard, J. B., et al. (2018). […] "Potent inhibition of heterotopic ossification by nuclear retinoic acid receptor-gamma agonists." Nat Med 17(4): 454-460.

With `CC(C)(C)c1cccc(-c2cc3cc(/C=C/C(=O)O)ccc3[nH]2)c1` [Compound 1, (E)-3-(2-(3-(tert-butyl)phenyl)-1H-indol-5-yl)acrylic acid] the IC50 [1] was 12.7 nM, the IC50 [2] was 5.9 nM and the ED50 ([3]; Mus musculus, BID, effective dose for 50% reduction in ectopic bone) was 4 mg/kg. The MTD at 4 weeks ([3]; both sexes, FVB, mouse, in vivo) was 10 mg/kg.
